Reference: article PMC5681922, “Systemic Responses of Multidrug-Resistant Pseudomonas aeruginosa and Acinetobacter baumannii Following Exposure to the Antimicrobial Peptide Cathelicidin-BF Imply Multiple Intracellular Targets” (Frontiers in Cellular and Infection Microbiology, 2017)

Columns and labels:
[1] = test system: P. aeruginosa 1409; assay: Membrane permeabilization assay (propidium iodide); assay type: cell-based, Pseudomonas aeruginosa; details: 1 h at 25°C in LB, then PI 10 μg/mL 30 min, fluorescence microscope
Experimental: Then, PI was added to a final concentration of 10 μg/mL. After 30 min of incubation at 25°C, the cells were washed 3 times with PBS and immediately imaged with a fluorescence microscope (Olympus, Japan) (Yu et al., [2015]).
Figure 3 Bacterial plasma membrane permeabilization assay of cathelicidin-BF. Cathelicidin-BF and levofloxacin were incubated with MDR P. aeruginosa in Luria-Bertani medium at final concentrations of 4 × MIC (minimal inhibitory concentration) or ¼ × MIC. After incubation at 25°C for 1 h, bacteria were collected by centrifugation at 3,000 × g for 5 min and resuspended with PBS. The DNA-binding fluorescent dye PI was added to a final concentration of 10 μg/mL. After 30 min incubation at 25°C, the cells were washed 3 times with PBS and immediately imaged using a fluorescence microscope.

[2] = test system: P. aeruginosa 1409; assay: Minimal inhibitory concentration (given as multiples of MIC); assay type: cell-based, Pseudomonas aeruginosa; details: MDR clinical isolate; MIC itself not given, only this multiple
[3] = test system: P. aeruginosa 1409; details: treated vs untreated, iTRAQ
[4] = cathelicidin-BF at 1/2 MIC (4 μg/mL), 37°C, 2 h
[5] = cathelicidin-BF change not categorized as differentially expressed

SMILES: C[C@H]1COc2c(N3CCN(C)CC3)c(F)cc3c(=O)c(C(=O)O)cn1c23 [levofloxacin, reference compound]
- integrity of bacterial membranes, PI staining at 4 × MIC ([1]; 4 × MIC (cathelicidin-BF 32 μg/mL, levofloxacin 64 μg/mL)): showed red fluorescence
- integrity of bacterial membranes, PI staining at ¼ × MIC ([1]; ¼ × MIC (cathelicidin-BF 2 μg/mL, levofloxacin 4 μg/mL)): no red dyes were detected
- 4 × MIC [2]: 64 µg/mL
- expression of protein Q9HVA1 (acetolactate synthase isozyme III small subunit) [3, 4]: overexpressed
- expression of protein Q9I3S7 (likely decarboxylase) [3, 4]: overexpressed
- expression of protein Q9HTV3 (3-octaprenyl-4-hydroxybenzoate carboxy-lyase) [3, 5]: downregulated
- expression of protein Q9I298 (putative 3-methylglutaconyl-ConA hydratase) [3, 5]: downregulated
- expression of protein Q9I5V3 (multifunctional CCA protein) ([3]; levofloxacin change not categorized as differentially expressed): downregulated
